Test results from patent US20250109141A1, “BRD4 PROTEIN DEGRADER COMPOUND, AND PREPARATION METHOD AND USE THEREOF” (Miracure Biotechnology Limited, priority 2023, published 2025).
Read-outs that look alike come from different tables or passages of the source.

Key:
[1] = system: LNCaP; test: Cell proliferation assay (CellTiterGlo, 72 h), LNCaP; assay type: cell-based; settings: LNCap cells, 72 h compound treatment, read-out: LNCap ATP average IC50
Experimental: The cell line used was 22RV1 or LNCaP, and the medium was RPMI-1640 containing 10% FBS and antibiotics. All incubations were performed at 37° C. in a humidified carbon dioxide incubator.
On day 1, cells were digested with 0.25% trypsin (containing EDTA) and collected by centrifugation.
(§1) The cells were seeded in a 96-well plate (white wall/transparent bottom) at 5000 cells/well and cultured overnight.
(§2) On day 2, A stock solution of the compound at a concentration of 10 mM was subjected to an 8-fold serial dilution to obtain 8 concentration points. 2 μL of the compound solution at each concentration point was added to 98 μL of fresh medium, and the mixture was mixed homogeneously. Then, 5 μL of the compound solution diluted in the medium at each concentration point was added to 100 μL of overnight medium containing the cells, and 2 replicates were set for each concentration. The mixture was cultured for 72 h.
(§3) After 72 h of compound treatment, the plate was equilibrated to room temperature, 100 μL of CellTiterGlo (Promega) was added. The mixture was mixed homogeneously for 2 min, left to stand at room temperature for 10 min, and then read for luminescence values on a SpectraMax M5 microplate reader to evaluate cell viability. The positive control was 1% Tween-20 and the negative control was 0.1% DMSO. IC50 was generated by 4-parameter non-linear regression fitting in GraphPad Prism.

[2] = system: 22RV1; test: Cell proliferation assay (CellTiterGlo, 72 h), 22RV1; assay type: cell-based; settings: read-out: 22Rv1 ATP average IC50
Experimental: All incubations were performed at 37° C. in a humidified carbon dioxide incubator.
as §1, §2, §3

[3] = Homo sapiens, 22Rv1 cells, 72 h compound treatment, CellTiterGlo

SMILES	IC50 ([1]; Homo sapiens) [nM]	IC50 ([2]; Homo sapiens, 22Rv1, 72 h) [nM]	IC50 [2, 3] [nM]	other results
Cc1sc2c(c1C)C(c1ccc(C#CCN)cc1)=N[C@@H](CC(N)=O)c1nnc(C)n1-2 [Compound 9001]	200 to 500	> 500		
Cc1sc2c(c1C)C(c1ccc(C#CC(N)=O)cc1)=N[C@@H](CC(=O)OC(C)(C)C)c1nnc(C)n1-2 [Compound 9002]	< 50		< 50	
Cc1sc2c(c1C)C(c1ccc(-c3cc(=O)[nH]o3)cc1)=N[C@@H](CC(=O)OC(C)(C)C)c1nnc(C)n1-2 [Compound 9003]	50 to 200		> 500	
Cc1sc2c(c1C)C(c1ccc(C#CCN)cc1)=N[C@@H](CC(=O)NO)c1nnc(C)n1-2 [Compound 9010]	> 500	> 500		
Cc1sc2c(c1C)C(c1ccc(C#CCN)cc1)=N[C@@H](CC(=O)Nc1ccc(O)cc1)c1nnc(C)n1-2 [Compound 9012]	50 to 200	200 to 500		
CCNC(=O)C[C@@H]1N=C(c2ccc(C#CCN)cc2)c2c(sc(C)c2C)-n2c(C)nnc21 [Compound 9013]	< 50	200 to 500		
Cc1sc2c(c1C)C(c1ccc(C#CC(=O)NN)cc1)=N[C@@H](CC(=O)OC(C)(C)C)c1nnc(C)n1-2 [Compound 9017]	< 50		200 to 500	
Cc1sc2c(c1C)C(c1ccc(C#CCN)cc1)=N[C@@H](CC(=O)NN)c1nnc(C)n1-2 [Compound 9018]	> 500	> 500		
COC(=O)C#Cc1ccc(C2=N[C@@H](CC(=O)OC(C)(C)C)c3nnc(C)n3-c3sc(C)c(C)c32)cc1 [Compound 9019]	50 to 200		200 to 500	
Cc1sc2c(c1C)C(c1ccc(C#CC(=O)O)cc1)=N[C@@H](CC(=O)OC(C)(C)C)c1nnc(C)n1-2 [Compound 9020]	> 500		> 500	
Cc1sc2c(c1C)C(c1ccc(C#CCN)cc1)=N[C@@H](CC(=O)O)c1nnc(C)n1-2 [Compound 9021]	50 to 200	> 500		
Cc1sc2c(c1C)C(c1ccc(C#CC(=O)N(C)N)cc1)=N[C@@H](CC(=O)OC(C)(C)C)c1nnc(C)n1-2 [Compound 9023]	> 500		> 500	
Cc1sc2c(c1C)C(c1ccc(C#CCN)cc1)=N[C@@H](CC(=O)N(C)O)c1nnc(C)n1-2 [Compound 9025]	50 to 200	200 to 500		
Cc1sc2c(c1C)C(c1ccc(C#CCN)cc1)=N[C@@H](CC(=O)N(C)N)c1nnc(C)n1-2 [Compound 9026]	> 500	> 500		
C#CCNC(=O)C[C@@H]1N=C(c2ccc(C#CCN)cc2)c2c(sc(C)c2C)-n2c(C)nnc21 [Compound 9038]	200 to 500	50 to 200		
Cc1sc2c(c1C)C(c1ccc(C#CCON)cc1)=N[C@@H](CC(=O)OC(C)(C)C)c1nnc(C)n1-2 [Compound 9041]	< 50		50 to 200	
CC(=O)NNCC#Cc1ccc(C2=N[C@@H](CC(=O)OC(C)(C)C)c3nnc(C)n3-c3sc(C)c(C)c32)cc1 [Compound 9046]	50 to 200		< 50	
CC(=O)NN(C)CC#Cc1ccc(C2=N[C@@H](CC(=O)OC(C)(C)C)c3nnc(C)n3-c3sc(C)c(C)c32)cc1 [Compound 9047]	> 500		< 50	
CCNC(=O)C[C@@H]1N=C(c2ccc(C#CCN)cc2)c2cc(OC)ccc2-n2c(C)nnc21 [Compound 9051]	> 500	> 500		
Cc1sc2c(c1C)C(c1ccc(-c3cc(=O)n(C)o3)cc1)=N[C@@H](CC(=O)OC(C)(C)C)c1nnc(C)n1-2 [Compound 9053]	50 to 200		50 to 200	
CONC(=O)C#Cc1ccc(C2=N[C@@H](CC(=O)OC(C)(C)C)c3nnc(C)n3-c3sc(C)c(C)c32)cc1 [Compound 9055]	< 50		< 50	
Cc1sc2c(c1C)C(c1ccc(-c3cc(CN)nn3C)cc1)=N[C@@H](CC(=O)OC(C)(C)C)c1nnc(C)n1-2 [Compound 9058]	200 to 500		> 500	

SMILES	IC50 ([1]; Homo sapiens) [nM]	IC50 ([2]; Homo sapiens, 22Rv1, 72 h) [nM]	IC50 [2, 3] [nM]	other results
Cc1sc2c(c1C)C(c1ccc(-c3nc(CN)cs3)cc1)=N[C@@H](CC(=O)OC(C)(C)C)c1nnc(C)n1-2 [Compound 9059]	< 50		50 to 200	
Cc1sc2c(c1C)C(c1ccc(-c3ccoc3CN)cc1)=N[C@@H](CC(=O)OC(C)(C)C)c1nnc(C)n1-2 [Compound 9060]	50 to 200		200 to 500	
Cc1sc2c(c1C)C(c1ccc(N3CC(CN)C3)cc1)=N[C@@H](CC(=O)OC(C)(C)C)c1nnc(C)n1-2 [Compound 9061]	200 to 500		50 to 200	
Cc1sc2c(c1C)C(c1ccc(-c3ccc(CN)n3C)cc1)=N[C@@H](CC(=O)OC(C)(C)C)c1nnc(C)n1-2 [Compound 9062]	50 to 200		50 to 200	
COc1ccc2c(c1)C(c1ccc(C#CCN)cc1)=N[C@@H](CC(=O)N(C)CCO)c1nnc(C)n1-2 [Compound 9063]	> 500	> 500		
CONCC#Cc1ccc(C2=N[C@@H](CC(=O)OC(C)(C)C)c3nnc(C)n3-c3sc(C)c(C)c32)cc1 [Compound 9064]	< 50		< 50	
Cc1sc2c(c1C)C(c1ccc(N3CC4(CC(N)C4)C3)cc1)=N[C@@H](CC(=O)OC(C)(C)C)c1nnc(C)n1-2 [Compound 9066]	< 50		200 to 500	
Cc1sc2c(c1C)C(c1ccc(-c3ccc(CN)s3)cc1)=N[C@@H](CC(=O)OC(C)(C)C)c1nnc(C)n1-2 [Compound 9067]	50 to 200		50 to 200	
Cc1sc2c(c1C)C(c1ccc(-c3ncc(CN)s3)cc1)=N[C@@H](CC(=O)OC(C)(C)C)c1nnc(C)n1-2 [Compound 9068]	50 to 200		50 to 200	
CCOC(=O)C[C@@H]1N=C(c2ccc(C#CCN)cc2)c2cc(OC)ccc2-n2c(C)nnc21 [Compound 9069]	< 50	< 50		
COc1ccc2c(c1)C(c1ccc(C#CCN)cc1)=N[C@@H](CC(=O)O)c1nnc(C)n1-2 [Compound 9070]	> 500	> 500		
Cc1sc2c(c1C)C(c1ccc(-c3csc(CN)n3)cc1)=NC(CC(=O)OC(C)(C)C)c1nnc(C)n1-2 (stereo not drawn) [Compound 9072]	< 50		50 to 200	
Cc1sc2c(c1C)C(c1ccc(-c3cnc(CN)s3)cc1)=NC(CC(=O)OC(C)(C)C)c1nnc(C)n1-2 (stereo not drawn) [Compound 9073]	< 50		50 to 200	
Cc1sc2c(c1C)C(c1ccc(-c3nc(CN)cs3)cc1)=N[C@@H](CC(=O)OC(C)(C)C)c1nnc(C)n1-2 [Compound 9074]				IC50 [1]: < 50 nM; IC50 ([2]; 22Rv1 cells, 72 h compound treatment, CellTiterGlo): 50 to 200 nM
Cc1sc2c(c1C)C(c1ccc(C#CCN)cc1)=N[C@@H](CC(=O)N(C)CCO)c1nnc(C)n1-2 [Compound 9075]	< 50	200 to 500		
Cc1sc2c(c1C)C(c1ccc(C#CCN)cc1)=N[C@@H](CC(=O)NCCO)c1nnc(C)n1-2 [Compound 9076]	200 to 500	> 500		
Cc1sc2c(c1C)C(c1ccc(/C=C/CON)cc1)=N[C@@H](CC(=O)OC(C)(C)C)c1nnc(C)n1-2 [Compound 9083]			< 50	
Cc1sc2c(c1C)C(c1ccc(-c3ccc(CN)cc3)cc1)=NC(CC(=O)OC(C)(C)C)c1nnc(C)n1-2 (stereo not drawn) [Compound 9084]	50 to 200		200 to 500	
Cc1sc2c(c1C)C(c1ccc(-c3cccc(CN)c3)cc1)=NC(CC(=O)OC(C)(C)C)c1nnc(C)n1-2 (stereo not drawn) [Compound 9085]	50 to 200		> 500	
COc1ccc2c(c1)C(c1ccc(/C=C/CON)cc1)=N[C@@H](CC(=O)OC(C)(C)C)c1nnc(C)n1-2 [Compound 9092]		> 500		
Cc1sc2c(c1C)C(c1ccc(N3CC(CO)C3)cc1)=N[C@@H](CC(=O)OC(C)(C)C)c1nnc(C)n1-2 [Compound 9105]			200 to 500	
Cc1sc2c(c1C)C(c1ccc(C#CCN)cc1)=N[C@@H](CC13OCC(C)(CO1)CO3)c1nnc(C)n1-2 [Compound 9113]				IC50 [2]: 200 to 500 nM
